# Results reported in PubChem BioAssay (NCI).
#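 Briefly, cells in 96-well plates were exposed to five compound concentrations for 48 h, and endpoints were estimated by linear interpolation. Abbreviation: GI50, concentration required for 50% inhibition of growth. TGI denotes the concentration required for complete inhibition of growth.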
# Experiments:
# Test in all cases: inhibition of tumour cell growth, NCI panel, 48 h
# [1] = system: A549 NSCLC
# [2] = system: BT-549 breast
# [3] = system: HL-60(TB) leukemia
# [4] = system: LOX IMVI melanoma
# [5] = system: MCF7 breast
# [6] = system: MDA-MB-435
# [7] = system: MOLT-4 leukemia
# [8] = system: NCI-H23 lung
# [9] = system: OVCAR-5 ovarian
# [10] = system: PC-3 prostate
Compound,GI50 [1] [µM],TGI [1] [µM],GI50 [2] [µM],TGI [2] [µM],GI50 [3] [µM],TGI [3] [µM],GI50 [4] [µM],TGI [4] [µM],GI50 [5] [µM],TGI [5] [µM],GI50 [6] [µM],TGI [6] [µM],GI50 [7] [µM],TGI [7] [µM],GI50 [8] [µM],TGI [8] [µM],GI50 [9] [µM],TGI [9] [µM],GI50 [10] [µM],TGI [10] [µM]
Cc1nc2sc3c(N)ncnc3c2c(C)c1C,> 25,> 25,> 25,> 25,> 25,> 25,> 25,> 25,> 25,> 25,> 25,> 25,> 25,> 25,> 25,> 25,> 25,> 25,> 25,> 25
CCN(CC)CCN1c2nc3ccccc3cc2Sc2cc3ccccc3nc21,2.34,6.12,2.83,12.2,1.99,4.21,1.57,3.03,0.75,2.1,1.8,3.97,2.31,6.6,2.51,10.6,1.65,4.55,1.71,4.84
O=C(Nc1ccc(Cl)cc1C(=O)O)c1ccc([N+](=O)[O-])cc1,,> 100,,,,50.8,,37.6,,,,,,61.7,,,,55,,
CCCCNC(=S)OCCC(C)CCCC(C)C (centres undefined),,> 100,,,,> 100,,> 100,,,,,,> 100,,> 100,,> 100,,
N#CC1(C#N)C=CC(=C2OCC3CCCN23)C=C1 (centres undefined),,> 100,,,,> 100,,> 100,,,,,,> 100,,,,> 100,,
N#Cc1nc(C#N)c(Sc2ccccc2)c(Sc2ccccc2)c1Sc1ccccc1,,,0.21,4.27,1.88,> 29.5,0.17,0.344,0.565,2.41,0.684,7.17,0.317,,0.36,2.35,2.34,4.68,0.753,21.5
CCCCCCCCCCCCN=C(N)c1ccc(N2CCN(c3ccc(C(N)=NCCCCCCCCCCCC)cc3)CC2)cc1,11.1,30.5,,,2.15,> 50,12,23,,,9.4,19.4,4.4,> 50,6.2,15.1,7.16,14.3,9.02,20.2
NCCCNc1nc2ccccc2c2c(=O)c3cccc(Cl)c3sc12,,,1.45,2.81,,,,,,,1.73,3.12,,,1.4,2.85,1.55,3.04,1.52,2.95
O=C1C=C2CCCC2C(C(=O)O)(C(=O)O)C1 (centres undefined),,> 100,,,,> 100,,> 100,,,,,,> 100,,> 100,,,,
